Laboratory results reported in US8853188B2, “Compositions and methods for cancer treatment” (Women and Infants Hospital of RI, Inc., priority 2005, dated 2014).
“Also recorded” adds a separate entry of the source.

Legend:
caspase-8 = experiment: Caspase-8 immunoblot in NB cells; format: cell-based; details: SMS-KCNR cells
Experimental: FIG. 10D. Caspase-8 immunoblot.
(§1) In depth studies were carried out to assess the activation of intrinsic and extrinsic apoptotic pathways. […] Caspase-9 was activated by B3CD in these cells (FIG. 10B), indicating an active role of intrinsic pathway of apoptosis. […] However, caspase-8 was undetectable in IMR-32 and SH-SY5Y cells.
Although caspase-8 was detected in SMS-KCNR cells, it was not activated by B3CD (FIG. 10D). Actin immunoblotting was used as loading control in the above studies (data not shown).

SK-N-SH cells [1] = experiment: Proliferation by BrdU incorporation assay; format: cell-based; details: 0-800 nM, 48 hours
Experimental: (§2) SK-N-SH and SH-SY5Y neuroblastic cells were treated with increasing doses of calcidiol or B3CD (0, 25, 50, 100, 200, 400 and 800 nM) for 48 hours. Cell viability was assessed by MTS assay and proliferation was determined by BrdU incorporation assay.

caspase-3 [2] = experiment: Caspase-3 immunoblot in NB cells; format: cell-based; details: SMS-KCNR, IMR-32 and SH-SY5Y cells
Experimental: FIG. 10A. Caspase-3 immunoblot.
as §1

osteosarcoma cells = experiment: Proliferation (MTS, BrdU), FIG. 3; format: cell-based
Experimental: (§3) Materials and methods. Proliferation was measured by MTS and BrdU incorporation assays. Apoptosis was assessed by DNA fragmentation, Cell Death Detection ELISA and caspase-3-assays. Effect of B3CD on TrkB signaling by BDNF was assessed by Western Blot analysis of AKT and ERK phosphorylation. The effect on angiogenesis was determined by chick chorioallantoic membrane (CAM) assay and aortic ring assay.
(§4) B3CD was tested on the panel of cell described above. […] Such cell-type specificity is not uncommon. […] However, keratinocytes were not affected by B3CD (FIG. 4A; Lane-2). In addition, caspase-3 activity was increased by B3CD (FIG. 4B). These studies indicated an underlying apoptotic mechanism in the anticancer activity of B3CD.

macrophage cells = experiment: Proliferation (MTS, BrdU), FIG. 3; format: cell-based
Experimental: as §3, §4

prostate cancer cells [3] = experiment: Proliferation (MTS, BrdU), FIG. 3; format: cell-based
Experimental: as §3, §4

neuroblastic cells = experiment: Proliferation (MTS, BrdU), FIG. 3; format: cell-based
Experimental: as §3, §4

endothelial cells = experiment: Proliferation (MTS, BrdU), FIG. 3; format: cell-based
Experimental: as §3, §4

ovarian cancer cells [4] = experiment: Proliferation (MTS, BrdU), FIG. 3; format: cell-based
Experimental: as §3, §4

skin cells = experiment: Proliferation (MTS, BrdU), FIG. 3; format: cell-based
Experimental: as §3, §4

breast cells = experiment: Proliferation (MTS, BrdU), FIG. 3; format: cell-based
Experimental: as §3, §4

pancreatic cells = experiment: Proliferation (MTS, BrdU), FIG. 3; format: cell-based
Experimental: as §3, §4

smooth muscle cells = experiment: Proliferation (MTS, BrdU), FIG. 3; format: cell-based
Experimental: as §3, §4

ERK1/2 = experiment: Western Blot analysis of ERK phosphorylation; format: cell-based; details: neuroblastoma cells
Experimental: as §3
(§5) Neuroblastoma cells were treated with B3CD for 48 hrs. […] AT 0.5 nM, B3CD inhibited >50% (p<0.035) and >90% at […] (p<0.01) viability and proliferation respectively.

caspase-3 [5] = experiment: Caspase-3 assay in neuroblastic cells, FIG. 4B; format: cell-based
Experimental: as §3, §4

TrkB signaling by BDNF = experiment: Effect on TrkB signaling by BDNF (Western Blot); format: cell-based; details: neuroblastoma cells
Experimental: as §3, §5

[6] = test system: Human umbilical vein endothelial cells (HUVEC); experiment: Endothelial cell viability / proliferation assay; format: cell-based; details: 25-400 nM, 24 hours
Experimental: (§6) Human umbilical vein endothelial cells (HUVEC) were treated with B3CD (25, 50, 100, 200 and 400 nM) for 24 hours and proliferation was measured as before. Vehicle and CD treated controls were used in each experiment. […] Following the treatment with B3CD, the endothelial cells were rounded up and floated, showing indications of apoptosis similar to NB.

[7] = test system: Human umbilical vein endothelial cells (HUVEC); experiment: Endothelial cell BrdU incorporation assay; format: cell-based; details: 25-400 nM, 24 hours
Experimental: as §6

SK-N-SH cells [8] = experiment: DNA laddering by agarose gel electrophoresis; format: cell-based; details: 250 nM, 48 hours
Experimental: (§7) Initially, during regular microscopic examination of the B3CD treated cells, the cells were condensing and floating in the culture dishes showing indications of apoptosis. In order to determine apoptosis, SK-N-SH and SH-SY5Y cells were treated with 250 nM B3CD for 48 hours. DNA was isolated and analyzed by agarose gel electrophoresis.

SH-SY5Y cells = experiment: DNA laddering by agarose gel electrophoresis; format: cell-based; details: 250 nM, 48 hours
Experimental: as §7

prostate cancer cells [9] = experiment: Apoptosis by DNA fragmentation, FIG. 4A; format: cell-based
Experimental: as §3, §4

ovarian cancer cells [10] = experiment: Apoptosis by DNA fragmentation, FIG. 4A; format: cell-based
Experimental: as §3, §4

keratinocytes = experiment: Apoptosis by DNA fragmentation, FIG. 4A; format: cell-based
Experimental: as §3, §4

[11] = test system: VEGF induced angiogenesis; experiment: Chick chorioallantoic membrane (CAM) assay; format: in vivo
Experimental: as §3
The antiproliferative effect of B3CD on endothelial cells was further investigated.
The ability of B3CD to inhibit angiogenesis/neovascularization was tested. Preliminary studies were carried out using chick chorioallantoic membrane (CAM) assay. Calcidiol or B3CD were deposited in the presence of growth factor (VEGF) and deposited on the CAM and eggs were incubated for 3 days at 37° C. (3% CO2). The control carried the growth factor alone. VEGF induces angiogenesis which results in sprouting of capillaries from the large vessels. The compounds diffuse out and any inhibitory molecule would reduce the growth of blood vessel network.

cytochrome-c = experiment: Cyt-C immunoblot of cytosol of NB cells; format: cell-based; details: SMS-KCNR, SH-SY5Y and IMR-32 cells
Experimental: FIG. 10C. Cyt-C immunoblot of cytosol of NB cells: A and D-SMS-KCNR; B and E-5H-SY5Y and C and F-IMR-32.
as §1

caspase-3 [12] = experiment: Caspase-3 activation in endothelial cells; format: cell-based; details: data not shown
From the text: Apoptosis in EC by B3CD was studied by DNA fragmentation and caspase-3 activation analyses as before.

SK-N-SH cells [13] = experiment: Cell viability by MTS assay; format: cell-based; details: 48 hours
Experimental: as §2

For C=C1CC[C@H](OC(=O)CBr)C/C1=C/C=C1\CCC[C@]2(C)[C@@H]([C@H](C)CCCC(C)(C)O)CC[C@@H]12 [B3CD, bromoacetic acid 3-{2-[1-(5-hydroxy-1,5-dimethyl-hexyl)-7a-methyl-octahydro-inden-4-ylidene]-ethylidene}-4-methylene-cyclohexyl ester], the “caspase-8 activation (immunoblot)” value (caspase-8) was “not activated”, the “proliferation, BrdU incorporation” value (SK-N-SH cells [1]) was “strong inhibition of proliferation” and the “caspase-3 activation (immunoblot)” value (caspase-3 [2]) was “activated”. For the same compound, the effect on proliferation (osteosarcoma cells) was “did not show an effect on proliferation”, the effect on proliferation (macrophage cells) was “did not show an effect on proliferation” and the “antiproliferative and cytotoxic effects” value (prostate cancer cells [3]) was “potent antiproliferative and cytotoxic effects”. The “antiproliferative and cytotoxic effects” value (neuroblastic cells) was “potent antiproliferative and cytotoxic effects”, the cell viability (neuroblastic cells; by 24 hours) was “less than 15 % of the untreated control cells” and the “antiproliferative and cytotoxic effects” value (endothelial cells) was “potent antiproliferative and cytotoxic effects; also recorded: inhibit proliferation”. For the same compound, the “antiproliferative and cytotoxic effects” value (ovarian cancer cells [4]) was “potent antiproliferative and cytotoxic effects”, the effect on proliferation (skin cells) was “did not show an effect on proliferation” and the effect on proliferation (breast cells) was “did not show an effect on proliferation”. The effect on proliferation (pancreatic cells) was “did not show an effect on proliferation”, the effect on proliferation (smooth muscle cells) was “did not show an effect on proliferation” and the “phosphorylation of ERK1/2” value (ERK1/2) was “inhibited phosphorylation”. The caspase-3 activity (caspase-3 [5]) was “increased; also recorded: activated caspase-3”, the “TrkB signaling by BDNF” value (TrkB signaling by BDNF) was “inhibited” and the “proliferation of EC” value [6] was “strongly inhibited the proliferation”. For the same compound, the “viability of EC” value [6] was “dose dependent decrease in viability”, the BrdU incorporation [7] was “strongly inhibited BrdU incorporation” and the DNA laddering (SK-N-SH cells [8]) was “distinct DNA laddering pattern characteristic of apoptosis”. The DNA laddering (SH-SY5Y cells) was “distinct DNA laddering pattern characteristic of apoptosis”, the “DNA laddering (apoptosis)” value (prostate cancer cells [9]) was “distinct DNA laddering characteristic of apoptosis” and the “DNA laddering (apoptosis)” value (ovarian cancer cells [10]) was “distinct DNA laddering characteristic of apoptosis”. For the same compound, the “DNA laddering (apoptosis)” value (keratinocytes) was “not affected”, the “inhibition of angiogenesis / neovascularization (in words)” value ([11]; VEGF present) was “inhibited VEGF induced angiogenesis; also recorded: inhibit” and the inhibition of neovascularization ([11]; compared to untreated controls) was about 60%. For the same compound, the “density of fine capillary network” value ([11]; versus VEGF control eggs) was “markedly reduced”, the “cytochrome-c release into cytosol” value (cytochrome-c) was “released into cytosol” and the “increase in caspase-3 activity” value (caspase-3 [12]) was 5 fold. For the same compound, the “viability of SK-N-SH cells (in words)” value (SK-N-SH cells [13]; 0-800 nM) was “dose dependent decrease” and the viability at 0.2 µM (SK-N-SH cells [13]; Homo sapiens, SK-N-SH, 200 nM) was under 20%.
